Assay [1] relates to MDA-MB-231 cells. In words: Anticancer drug screening in 96-well plates (control), MTT assay. The assay is classed as cell-based. The note with it: Homo sapiens, 96-well control, 24 hour drug treatment, read-out: IC50 (concentration yielding a 50% decrease in normalized percentage cell viability). As for the experimental part: The anticancer drug screening of cell lines was conducted with MGP and on 96-well plates as control. Two typical breast cancer lines, MCF-7 (ATCC, HTB-22) and MDA-MB-231 (ATCC, HTB-26) were used. The reason to choose the two types of cancer cell lines was that MCF-7 stood for typical luminal type cancer cells while MDA-MB-231 stood for normal-like typically. By using the two cell lines in drug response assay on the microfluidic device, we could examine whether MGP was workable to both the two types of cancer cells since primary samples may have diversely cancer cell types. Anticancer drug screening using cell lines could confirm the feasibility of applying MGP to individualized chemosensitivity assay on primary patient samples. In addition, cell lines on MGP could help optimize the operation of drug response assay beforehand, which would reduce the difficulties when dealing with primary samples. […]
Anticancer drug screening was also conducted using conventional 96-well plates as controls. […] The quantity of cells in single well was determined to coordinate the same cell-to-substrate ratio as in MGP (1000 cells/1.766 mm2). […] Finally, a plate reader (MQX 200, BioTek) was used to determine the absorbance of the DMSO at 570 nm, which was used to determine the number of living cells. […]

Assay [2] has as its system MDA-MB-231 cells. Briefly: Anticancer drug screening in the Micro-Gap Plate (MGP), viability by tri-fluorescent staining. The note with it: Homo sapiens, 24 hour drug treatment, viability normalized against untreated cells, read-out: IC50 (concentration yielding a 50% decrease in normalized percentage cell viability). The assay is classed as cell-based. As for the experimental part: The anticancer drug screening of cell lines was conducted with MGP and on 96-well plates as control. Two typical breast cancer lines, MCF-7 (ATCC, HTB-22) and MDA-MB-231 (ATCC, HTB-26) were used. The reason to choose the two types of cancer cell lines was that MCF-7 stood for typical luminal type cancer cells while MDA-MB-231 stood for normal-like typically. By using the two cell lines in drug response assay on the microfluidic device, we could examine whether MGP was workable to both the two types of cancer cells since primary samples may have diversely cancer cell types. Anticancer drug screening using cell lines could confirm the feasibility of applying MGP to individualized chemosensitivity assay on primary patient samples. In addition, cell lines on MGP could help optimize the operation of drug response assay beforehand, which would reduce the difficulties when dealing with primary samples. Moreover, the method of viability assessment could be examined on MGP using cell lines since fluorescent images was one of most important factors to determine the viability of cancer cells after drug treatment. […]
Primary cells were suspended (16.7 cells/0.1 μL) in culture medium (the formula of culture medium is stated in the previous section). […] The volume of cell suspension in each unit was determined on the basis of the final density of cell suspension as stated in previous section. […]

In brackets after ≈: the same amount, converted by molar mass.

Turning to `CC(=O)O[C@@]12CO[C@@H]1C[C@H](O)[C@@]1(C)C(=O)[C@H](O)C3=C(C)[C@@H](OC(=O)[C@H](O)[C@@H](NC(=O)OC(C)(C)C)c4ccccc4)C[C@@](O)([C@@H](OC(=O)c4ccccc4)[C@H]21)C3(C)C` [docetaxel], the IC50 was 25.4 µg/mL (≈ 31.4 µM) in assay [1] and 23.4 µg/mL (≈ 29 µM) in assay [2].

For the origin of these results see US20160354781A1, “MICROFLUIDIC PLATE FOR SAMPLE PROCESSING” (National Taiwan University, priority 2015, published 2016).
